Reference: patent publication US20240099214A1, “PLANT DEFENCE GENE EXPRESSION” (UPL Corporation Limited, priority 2021, published 2024)

Key:
[1] = tested on: AY093595.1 (gene 13, PR protein); experiment: qRT-PCR expression of gene 13 in tomato leaves; format: in vivo, Tomato ecotype corbarino; parameters: key: relative expression normalized to a-tubulin housekeeping gene
Description: (§1) Tomato ecotype “corbarino” reported to be susceptible to TSWV infection was used in the experiment. Plants were grown in pots in a climatic chamber with a photoperiod of 16/8 hour at 25° C.
(§2) The viral strain (TSWV PV PV-0393) was utilized in the experiment. The virus was mechanically inoculated and propagated on tomato “corbarino”. The inoculum was prepared in an ice-cooled mortar grounding 1 gr of infected tomato tissue in 10 ml of Na-phosphate buffer 0.01M. The fresh prepared inoculum was stored in ice before use. Tomato plants at BBCH16 were dusted with Carborundum 600 mesh and selected leaves were rubbed with some droplets of inoculum. After 5 min. plants were sprayed with sterile water to remove the excess of inoculum and preserve the cell turgor.
(§3) Four treatments were compared: i) Mock inoculated; ii) TSWV; iii) 0.25% Laminarin; iv) 0.25% Laminarin+TSWV. In the last treatment the virus was inoculated 24 hrs after the laminarin application.
(§4) Total RNA was extracted from systemic infected tomato leaves by using the Quick-RNA Plant Kit (Zymo Research) following the manufacturer instructions. The extractions were carried out using three plants after 12 h, 24 h, 48 h, 72 h, 7 days after inoculation. Leaves were instantly frozen in liquid nitrogen after cutting to avoid any deterioration of the sample as well as any defense reaction. The RNA concentration was quantified by measuring the absorbance at 260 nm using a Nanodrop 2000 (Thermofisher). The purity of all of the RNA samples was assessed at an absorbance ratio of OD260/280 and OD260/230, while its structural integrity was checked by agarose gel electrophoresis. Only high-quality RNA with OD 260/280 and OD 260/230>2 was used for subsequent steps. Single-stranded cDNA was synthesized from 1 μg of total RNA using an iScript™ Select cDNA Synthesis Kit and random hexamers as primers (Bio-Rad, Milan, Italy), according to the manufacturer's instructions. Three biological replicates were created from the 3 leaves collected to test 15 genes. Alpha tubulin was used as reference gene.
(§5) qPCR reactions were performed with BioRad (Applied Biosystems, Foster City, CA, USA) using SYBR R Green. Each reaction was performed in 20 μl containing 10 μl of 2× Power SYBR Green PCR Master Mix (Life Technologies), 0.2-0.3 μM primers and cDNA samples diluted 1:20. Each qPCR reaction was performed in triplicate. Reactions were run using the cycling parameter described previously (Reid et al., 2006) and the qPCR data were analyzed by the Ct method (Pfaffl, 2001). In order to analyze the qPCR data, a-tubulin gene was used as housekeeping to determine the relative expression level of the other genes analyzed in this work. For the determination of qPCR efficiency of each primer pairs, a standard curve was performed using the following cDNA dilutions: 1:4, 1:16, 1:64; 1:256 and 1:1024. Every measurement was made in triplicate. The corresponding qPCR efficiencies (E) were calculated for every primer pair with the software 7300 System SDS software (Applied Biosystems, Foster City, CA, USA) according to the equation E=(10−1/slope−1)×100 (Rutledge and Stewart, 2008).
(§6) The significance of the differences between the gene expressions levels were compared by one-way ANOVA (p=0.01) and the means were separated by Tukey post-hoc test using SPSS ver.26 ([…]).

[2] = tested on: 1-aminocryclopropane-1-carboxylate oxidase-like protein (gene 6, Solyc11g072100.1); experiment: qRT-PCR expression of gene 6 in tomato leaves; format: in vivo, Tomato ecotype corbarino; parameters: key: relative expression normalized to a-tubulin housekeeping gene
Description: as §1, §2, §3, §4, §5, §6

[3] = Gene_13, 12 hr, treatment Laminarin
[4] = Gene_13, 12 hr, treatment Laminarin + virus
[5] = Gene_13, 24 hr, treatment Laminarin
[6] = Gene_13, 24 hr, treatment Laminarin + virus
[7] = Gene_13, 48 hr, treatment Laminarin
[8] = Gene_13, 48 hr, treatment Laminarin + virus
[9] = Gene_13, 72 hr, treatment Laminarin
[10] = Gene_13, 72 hr, treatment Laminarin + virus

laminarin
RQ1 [1, 3]: 0.9025 | RQ2 [1, 3]: 11.021 | RQ3 [1, 3]: 12.323 | RQ mean [1, 3]: 10.790 | RQ1 [1, 4]: 13.339 | RQ2 [1, 4]: 10.934 | RQ3 [1, 4]: 11.013 | RQ mean [1, 4]: 11.762 | RQ1 [1, 5]: 13.750 | RQ2 [1, 5]: 14.763 | RQ3 [1, 5]: 13.300 | RQ mean [1, 5]: 13.938 | RQ1 [1, 6]: 13.085 | RQ2 [1, 6]: 11.438 | RQ3 [1, 6]: 12.395 | RQ mean [1, 6]: 12.306 | RQ1 [1, 7]: 31.999 | RQ2 [1, 7]: 13.498 | RQ3 [1, 7]: 29.839 | RQ mean [1, 7]: 25.112 | RQ1 [1, 8]: 25.291 | RQ2 [1, 8]: 0.8970 | RQ3 [1, 8]: 28.993 | RQ mean [1, 8]: 21.085 | RQ1 [1, 9]: 45.838 | RQ2 [1, 9]: 96.757 | RQ3 [1, 9]: 93.370 | RQ mean [1, 9]: 78.655 | RQ1 [1, 10]: 53.674 | RQ2 [1, 10]: 42.556 | RQ3 [1, 10]: 49.901 | RQ mean [1, 10]: 48.710 | RQ1 ([2]; 12 hr, Laminarin alone): 0.9088 | RQ2 ([2]; 12 hr, Laminarin alone): 0.971 | RQ3 ([2]; 12 hr, Laminarin alone): 0.8924 | RQ mean ([2]; 12 hr, Laminarin alone): 0.9241 | RQ1 ([2]; 24 hr, Laminarin + virus): 13.422 | RQ2 ([2]; 24 hr, Laminarin + virus): 17.528 | RQ3 ([2]; 24 hr, Laminarin + virus): 12.610 | RQ mean ([2]; 24 hr, Laminarin + virus): 14.520 | RQ1 ([2]; 24 hr, Laminarin alone): 16.709 | RQ2 ([2]; 24 hr, Laminarin alone): 18.603 | RQ3 ([2]; 24 hr, Laminarin alone): 0.8182 | RQ mean ([2]; 24 hr, Laminarin alone): 14.498 | RQ1 ([2]; 48 hr, Laminarin + virus): 14.823 | RQ2 ([2]; 48 hr, Laminarin + virus): 17.395 | RQ3 ([2]; 48 hr, Laminarin + virus): 0.9742 | RQ mean ([2]; 48 hr, Laminarin + virus): 13.987 | RQ1 ([2]; 48 hr, Laminarin alone): 16.033 | RQ2 ([2]; 48 hr, Laminarin alone): 16.927 | RQ3 ([2]; 48 hr, Laminarin alone): 10.675 | RQ mean ([2]; 48 hr, Laminarin alone): 14.545 | RQ1 ([2]; 72 hr, Laminarin + virus): 26.404 | RQ2 ([2]; 72 hr, Laminarin + virus): 20.406 | RQ3 ([2]; 72 hr, Laminarin + virus): 19.154 | RQ mean ([2]; 72 hr, Laminarin + virus): 21.988 | RQ1 ([2]; 72 hr, Laminarin alone): 27.013 | RQ2 ([2]; 72 hr, Laminarin alone): 20.615 | RQ3 ([2]; 72 hr, Laminarin alone): 19.604 | RQ mean ([2]; 72 hr, Laminarin alone): 22.410
